Two substances from patent US20130273092A1 (priority 2010, published 2013) can be followed below.

Common to all, as to format: cell-based, C57BL/6 mice
The test system of test [1] is CD8 cells.
For test [2], the system named is Vb6+ CD8 clone.
Test [3] relates to Vb6-CD8 clone.

H-SVIGFIQRM-OH [SEQ ID NO: 3]: in test [1], the “TNF-α and IFN-γ expression” value was “stimulated TNF-α and IFN-γ expression from nearly as many CD8 cells as did the polyclonal stimulus anti-CD3”.
In the case of “H-VAHSVIGFIQRMFSE-OH [YopE peptide number 14]”, in test [2], the “IFN-γ by ELISA” value is given as “specifically produced IFN-γ” and the “proliferation (3H-thymidine incorporation, stimulation index)” value is reported as “proliferated”. In test [3], the “response pattern (IFN-γ and proliferation)” value is “identical response pattern”.
